Results as given in patent US11135224B2, “Methods of sensitizing estrogen receptor positive (ER+) breast cancer cells to endocrine therapy” (New York University, priority 2018, dated 2021).

How the values were obtained:
Type in all cases: cell-based, human
TamR cells (MCF7 LCC9) [1] = assay: Cell cycle analysis, TamR cells; settings: 20 nM RAD001 plus 1 μM 4-OH Tam, 72 hours
Procedure: Cells were lysed in NP-40 buffer and probed for key translation factors. β-tubulin (loading control). […] Cells were treated with either DMSO or 1 μM 4-OH Tam 24 hours after plating. Dox (1 μg/mL) was administered 24 hours after plating and removed after 72 hours. Colonies scored after 10 days counting only ≥50 cells/colony. SEM is shown. […] Cells were treated with either DMSO control or 1 μM 4-OH Tam for 72 hours in 1% CS-FBS. Dox (1 μg/mL) was administered to cells for 72 hours. Cells were fixed in 70% ethanol overnight and subjected to RNaseA treatment. Cells were stained with Hoechst 33342. Data was collected using LSRII UV and analyzed with FloJo software. Data from 3 independent experiments are shown. SEM is shown. *P<0.05 by two-way ANOVA. […] Cap chromatography performed on TamR cells with or without 4E-BP1 cDNA overexpression. Cells were lysed in NP-40 buffer and pulldown was performed for 1 hour at 4° C. Proteins were eluted and resolved via SDS-PAGE. […] Data was collected using FACScalibur and analyzed with FloJo 10.0 software. […] Data was collected using FACScalibur and analyzed with FloJo 10.0 software. […] Colonies scored after 10 days counting only ≥50 cells/colony. […]
(§1) Cell Cycle Analysis: Cells were trypsinized, filtered, and counted using an automated cell counter (Bio-Rad). […] Data were collected using a FACScalibur or LSRII UV and analyzed with FlowJo 10.0.

TamR cells (MCF7 LCC9) [2] = assay: Colony survival assay, TamR cells
Procedure: (§2) Cells were fixed in 70% ethanol overnight. Cells were subjected to RNaseA treatment and stained with propidium iodide (PI). Data was collected using FACScalibur and analyzed with FloJo 10.0 software. Data from 3 independent experiments are shown. SEMs are shown. **P<0.01 and ***P<0.001 by two-way ANOVA. […] TamS and TamR cells were treated with either DMSO or 1 μM 4-OH Tam and initiated on day 0. Results are representative of 3 independent experiments and presented as relative proliferation in which all samples are normalized to Day 0. Standard deviations are shown. *P<0.05 by t-test. […] Cells were treated with either DMSO or 1 μM 4-HT 24 hours after plating. Colonies scored after 10 days counting only ≥50 cells/colony. Results are representative of 3 independent experiments. SEMs are shown. ***P<0.001 by two-way ANOVA. […] Equal amounts of RNA were reverse transcribed and quantified through real-time PCR. RNA levels normalized to GAPDH using the ^−ΔΔCt method. Error bars represent SEM. […] RNA levels normalized to GAPDH using the ^−ΔΔCt method. Error bars represent SEM.
Cells were lysed in NP-40 buffer and probed for key translation factors. β-tubulin (loading control). […] Cells were treated with either DMSO or 1 μM 4-OH Tam 24 hours after plating. Dox (1 μg/mL) was administered 24 hours after plating and removed after 72 hours. Colonies scored after 10 days counting only ≥50 cells/colony. SEM is shown. […] Cells were treated with either DMSO control or 1 μM 4-OH Tam for 72 hours in 1% CS-FBS. Dox (1 μg/mL) was administered to cells for 72 hours. […] Data was collected using LSRII UV and analyzed with FloJo software. […] Data was collected using FACScalibur and analyzed with FloJo 10.0 software. […] Data was collected using FACScalibur and analyzed with FloJo 10.0 software. […] Colonies scored after 10 days counting only ≥50 cells/colony. […]
Hsp70 (loading control). […] Colonies were scored after 10 days counting only >50 cells/colony. […] Equal amounts of RNA were resolved by sucrose gradient centrifugation and ribosome profiles monitored by UV absorbance 254 nm. […]

[3] = system: canonical ER signaling in BR7 cells; assay: ER signaling mRNA expression (c-Myc, EEIG1) by real-time PCR, BR7 (PDX) cells; settings: Tam for 24 hours
Procedure: as §2
(§3) Quantitative Real-Time PCR (RT-qPCR) and Analysis: RNA was extracted using Trizol as per the manufacturer's instructions. […] Fold change was calculated using the 2^−ΔΔCt method.

[4] = system: canonical ER signaling in TamR cells; assay: ER signaling mRNA expression (c-Myc, EEIG1) by real-time PCR, TamR cells; settings: Tam for 24 hours
Procedure: as §2, §3

TamR cells (MCF7 LCC9) [5] = assay: Cell proliferation assay (MTT), TamR cells; settings: 1 μM 4-OH Tam
Procedure: as §2
Endogenous eIF4E was silenced by shRNA. […]
Cell Proliferation Assay: Cell proliferation was measured using the CellTiter 96 nonradioactive cell proliferation assay kit (Promega) according to the manufacturer's instructions. […] Absorbance was measured at 570 nm. […]

TamS cells (MCF7 LCC1) = assay: Cell cycle analysis, TamS cells with or without eIF4E overexpression; settings: 1 μM 4-OHT for 72 h, regardless of eIF4E overexpression
Procedure: Dox (2 μg/mL) was added 72 hours prior to lysis in NP-40 buffer. Equal protein amounts were immunoblotted as shown. β-Actin was used as a loading control. […] Dox (2 μg/mL) was added for 72 hours. Cells were subjected to exhaustive RNase A and stained with propidium iodide (PI). Flow cytometry data were collected using a FACScalibur and analyzed with FloJo software. The average of three studies is shown. […] Cells were treated with 2 μg/mL Dox for 72 hours and lysed in NP-40 buffer. Equal protein amounts were immunoblotted. β-Actin was used as a loading control. Representative results are shown. […] TamS sh-control, eIF4E-overexpressing, shTSC2, and shTSC2 and eIF4E-overexpressing cells were treated with either DMSO or 1 μM 4-OHT. (**)P<0.01; (***)P<0.0001 by two-way ANOVA. […] Results are the average of three independent studies.
Cell Cycle Analysis: Cells were trypsinized, filtered, and counted using an automated cell counter (Bio-Rad). Cells (7×10^5) were seeded on 10-cm culture plates in IMEM (Corning) with 5% FBS (Gibco) and 0.4% gentamicin sulfate (Lonza) and allowed to adhere overnight. The medium was changed to IMEM (Corning) with 1% charcoal-stripped FBS (HyClone) and 0.4% gentamicin sulfate for 48 hours. Cells were treated with the appropriate drug for 72 hours and with fresh drug after 48 hours. […] Data were collected using a FACScalibur or LSRII UV and analyzed with FlowJo 10.0.

BR7 (PDX) cells = assay: Cell cycle analysis, BR7 (PDX) cells; settings: 1 μM 4-OH Tam
Procedure: as §2, §1

| SMILES | resensitization to tamoxifen: cell proliferation (TamR cells (MCF7 LCC9) [1]) | resensitization to tamoxifen: survival (TamR cells (MCF7 LCC9) [2]; 20 nM RAD001 plus 1 μM 4-OH Tam, 10 days) | cell survival on cotreatment (TamR cells (MCF7 LCC9) [2]; RAD001 added to 1 μM 4-OHT plus 10 μM CGP57380) | tamoxifen-induced repression of canonical ER signaling [3] | survival under tamoxifen (TamR cells (MCF7 LCC9) [2]; 1 μM 4-OH Tam, 10 days) | tamoxifen-induced repression of canonical ER signaling [4] | proliferation under tamoxifen (TamR cells (MCF7 LCC9) [5]) | proliferation in the presence of tamoxifen (TamS cells (MCF7 LCC1)) | cell cycle distribution under tamoxifen (BR7 (PDX) cells) |
| --- | --- | --- | --- | --- | --- | --- | --- | --- | --- |
| CO[C@H]1C[C@@H]2CC[C@@H](C)[C@@](O)(O2)C(=O)C(=O)N2CCCC[C@H]2C(=O)O[C@H]([C@H](C)C[C@@H]2CC[C@@H](OCCO)[C@H](OC)C2)CC(=O)[C@H](C)/C=C(\C)[C@@H](O)[C@@H](OC)C(=O)[C@H](C)C[C@H](C)/C=C/C=C/C=C/1C [RAD001, Everolimus] | restoration of inhibition of cell proliferation | decreased survival | further additive reduction in cell survival |  |  |  |  |  |  |
| CC/C(=C(\c1ccccc1)c1ccc(OCCN(C)C)cc1)c1ccccc1 [tamoxifen] |  |  |  | insensitive | maintain normal proliferation and survival | insensitive | maintain normal proliferation and survival | unable to proliferate | normal cell cycle distribution |
